# Results from patent publication US20240366731A1, “ORAL ALGAL OIL BASED GASTRO-INTESTINAL TRACT PERMEABLE PEPTIDE COMPOSITION” (CELAGENEX RESEARCH (INDIA) PVT. LTD., priority 2021, published 2024).
# Values joined by “and” are separate entries in the source; they are usually repeats but may differ in a detail not shown here. Equal values may be shown once.
# Experiment: Study of Composition-3 vs Januvia (Sitagliptin) vs Placebo in T2D adult patients with inadequate glycemic control, 04-week treatment
# Assay type: in vivo, human
# Procedure: A study of Composition-3 vs Januvia (Sitagliptin) vs Placebo in adult patients with inadequate glycemic control • 1. Composition-3—Oral insulin—8 mg • 2. Reference—Januvia (Sitagliptin)—100 mg • 3. Placebo
# The pivotal study was involved 36 patients divided in to 3 groups of 12 each randomized to 1:1:1 into three cohorts dosed with 8 mg of Composition-3at night, Januvia 100 mg (Sitagliptin) at night and placebo at night.
# Patient population-T2D adult patients above age of 21 years with inadequate glycemic control who were managing their condition with diet and metformin monotherapy.
# • HbA1c ≥7.5% on metformin ≥500 mg daily • At time of randomization, patients were treated for their diabetes by diet, exercise, and metformin (≥500 mg/day; any type and regimen). […] A negative urine pregnancy test was obtained during Visit 2 and at Visit 4 (prior to randomization). • Males and females of childbearing potential used two methods of contraception (double barrier method), one of which must be an acceptable barrier method from the time of screening to the last study visit
# • Patients who meet any of the following criteria was not eligible for this study. • Presence of any clinically significant endocrine disease according to the Investigator (euthyroid patients on replacement therapy was included if the dosage of thyroxine is stable for at least six weeks prior to Screening Visit). • Clinical diagnosis of Type 1 diabetes. • Presence or history of cancer within the past five years except for adequately treated localized basal cell skin cancer or in situ uterine cervical cancer. • Laboratory abnormalities at screening including: • 1. C-peptide <1.0 ng/mL. • 2. Positive pregnancy test in females of childbearing potential (at screening and start of run-in period). • 3. Abnormal serum thyrotropin (TSH) levels >1.5 times the upper limit of normal. • 4. Positive test for hepatitis B surface antigen and/or hepatitis C antibody. • 5. Positive test for HIV. • 6. Serum Cr >1.4 mg/dl in males, >1.3 mg/dl in females. • 7. Any relevant abnormality interfering with the efficacy or the safety assessments during study drug administration. • Use of the following medications: • 1. History of use of insulin for greater than one week in the last six months and any use of insulin in the last six weeks prior to randomization. • 2. Administration of anti-diabetic drugs other than metformin within four weeks prior to randomization visit. Administration of thyroid preparations or thyroxine within six weeks prior to screening visit. […] (Note: Alcohol abuse includes heavy alcohol intake as defined by >3 drinks per day or >14 drinks per week, or binge drinking). • Elevated liver enzymes (alanine transaminase (ALT), […], alkaline phosphatase) greater than two times the upper limit of normal at screening. • Very high triglyceride level (>500 mg/dL) at screening. • Any clinically significant electrocardiogram (ECG) abnormality at screening or cardiovascular disease. Clinically significant cardiovascular disease will include: • 1. History of stroke, transient ischemic attack, or myocardial infarction within six months prior to screening, • 2. History of or currently have New York Heart Associate Class II-IV heart failure prior to screening, or • 3. Uncontrolled hypertension defined as blood pressure ≥160 mmHg (systolic) or ≥100 mmHg (diastolic) at screening.
# • The primary endpoint of the study was to compare the efficacy of Composition-3 to Sitagliptin & placebo in improving glycaemic control as assessed by A1c over a 04-week treatment period, with a secondary endpoint of comparing Composition-3 to Sitagliptin & placebo in change from baseline in FPG at week 04 • 1. Change from Baseline in Haemoglobin A1c (A1C) at Week 04 [Time Frame: Baseline and Week 04] A1C was measured as the percentage of glycosylated haemoglobin. Change in A1C following 04 weeks of therapy (i.e., A1C at Week 04 minus A1C at baseline) • 2. […]
smiles,measurement,setting,value
N[C@@H](CC(=O)N1CCn2c(nnc2C(F)(F)F)C1)Cc1cc(F)c(F)cc1F [Sitagliptin],Mean A1c (HbA1c) % week 04,"group mean n = 12, Week 04",6.66%
same,Mean FPG (mg/dl) week 04,"group mean n = 12, Week 04",160.53 mg/dL
same,% Improvement A1c (HbA1c),"group mean n = 12, Week 04 vs baseline",14.7%
same,Mean A1c (HbA1c) % baseline,"group mean n = 12, baseline",7.81%
same,Mean FPG (mg/dl) baseline,"group mean n = 12, baseline",200.68 mg/dL
same,FPG (mg/dl) Week 04,"individual patient, Week 04, before breakfast",155.06 mg/dl and 159.18 mg/dl and 156.1 mg/dl and 150.54 mg/dl and 158.1 mg/dl and 166.66 mg/dl and 157.66 mg/dl and 164.78 mg/dl (2×) and 182.58 mg/dl and 152.06 mg/dl and 158.54 mg/dl
same,A1c (HbA1c) % Week 04,"individual patient, Week 04, dosed orally at night",6.6% (4×) and 6.8% (3×) and 6.5% (2×) and 6.4% (2×) and 7.3%
same,A1c (HbA1c) % Baseline,"individual patient, baseline, T2D patients on metformin",7.9% (2×) and 8% and 7.6% (2×) and 7.7% (3×) and 7.8% (3×) and 8.2%
same,FPG (mg/dl) Baseline,"individual patient, baseline, before breakfast",203.94 mg/dl (2×) and 207.5 mg/dl and 193.26 mg/dl (2×) and 196.82 mg/dl (3×) and 200.38 mg/dl (3×) and 214.62 mg/dl
